The values below come from patent EP4790046A1, “NOVEL COMPOUND DERIVED FROM MYRISTICA FRAGRANS, AND ANTICANCER COMPOSITION COMPRISING SAME” (Korea Institute of Science and Technology, priority 2023, dated 2025).

Holding throughout (type): cell-based
One assay deals with SNU-C5. The assay is described as follows: alamarBlue cell viability (survival rate, IC50), SNU-C5. From the text: (§1) A p-value < 0.05 was considered statistically significant.
(Alamar Blue is a resazurin reagent that responds to reducing activity.)

For another assay, the system named is AGS. As to the kind of experiment: alamarBlue cell viability (survival rate, IC50), AGS. The conditions noted are these: AGS (gastric cancer).
Text: as §1

In another assay the test system is SW48 cell line. As to the kind of experiment: Cell cycle distribution (PI/RNase staining, flow cytometry), SW48. As for the experimental part:
Cell cycle distribution was analyzed by DNA staining using FxCycle PI/RNase Staining Solution (Invitrogen, USA). The 23132/87 and SW48 cell lines was seeded at densities of 5 × 10^5 and 7 × 10^5cells/well, respectively, in 6-well plates. After 24 hours of culture, cells were starved overnight in serum-free medium. […] Cells were then harvested, fixed with 70% ethanol, and stained with PI/RNase solution. Samples were analyzed by flow cytometry (BD FACSVerse Cell Analyzer and FlowJo software, BD Biosciences, Franklin Lakes, NJ, USA) based on 10,000 events.
Student's t-test was performed for statistical analysis between the 2 concentrations of the same compound.
In general terms: In flow cytometry, cells or beads pass a laser one at a time.

A further assay has as its system HepG2. The assay is described as follows: alamarBlue cell viability (survival rate), HepG2. The conditions noted are these: HepG2 (liver cancer), compound 10 µM, 48 hours.
Text: as §1

As usually defined, the pIC50 is the IC50 on a negative log10 scale, so that one unit is a factor of ten.

pIC50: −log10 of the molar value. Like-named read-outs stand apart in the source and are kept apart here.

Regarding `C=CCc1cc(OC)c(O[C@H](C)[C@H](c2ccc(O)c(OC)c2)c2ccc(O)c(C(=O)CCCCCCCCc3ccc(O)cc3)c2O)c(OC)c1` [Compound 3, Myricone C], the “Cancer cell line survival rate (%)” value in the assay with SNU-C5 (SNU-C5 (colorectal cancer), compound 10 µM, 48 hours) is listed as 2.11%; in the assay with AGS (compound 10 µM, 48 hours), 0.16%; in the assay with HepG2, 1.60%. Moreover, the pIC50 is 5.60 in the assay with SNU-C5 (SNUC5 (colorectal cancer), 2.5-40 µM, positive control = oxaliplatin, read-out: IC50); 5.60 in the assay on SNU-C5 (SNUC5 cells, compound 2.5-40 µM, read-out: IC50 values); 5.44 in the assay with AGS (Homo sapiens, 2.5-40 µM, positive control = doxorubicin). The “Cell cycle distribution, G1” value is reported as 56.63% in the assay with SW48 cell line (SW48, 5 µM, 48 hours) and 50.93% in the assay on SW48 cell line (SW48, 10 µM, 48 hours). In addition, the “Cell cycle distribution, G2/M” value is 8.91% in the assay with SW48 cell line (SW48, 5 µM, 48 hours) and 6.13% in the assay on SW48 cell line (SW48, 10 µM, 48 hours). Further, the “Cell cycle distribution, S” value was 23.00% in the assay on SW48 cell line (SW48, 5 µM, 48 hours) and 19.30% in the assay on SW48 cell line (SW48, 10 µM, 48 hours). The “Cell cycle distribution, Sub G1” value in the assay with SW48 cell line (SW48, 5 µM, 48 hours) is listed as 9.65%; in the assay with SW48 cell line (SW48, 10 µM, 48 hours) it was 24.17%. In addition, the “sub-G1 proportion increase compared to the DMSO control” value in the assay with SW48 cell line (SW48, 10 µM, 48 hours) is on record as 7%. Besides, the G2 phase in the assay with SW48 cell line (SW48, 5 µM) is given as 8.91% ± 0.24%; with SW48 cell line (SW48, 10 µM) it was 6.13% ± 0.47%. In addition, the sub-G1 phase ratio is 9.65% ± 1.02% with SW48 cell line (SW48, 5 µM) and 24.17% ± 0.98% in the assay with SW48 cell line (SW48, 10 µM). Further, the “proportions of the G1, S, and G2/M phases” value with SW48 cell line (SW48, 10 µM, 48 hours, only G2/M decrease statistically significant) is on record as “slightly reduced”.
